# Patent US20260258064A1 (SIRONAX LTD., priority 2023, published 2026)
# Molecular target: T1, SARM1 (50-724) (Homo sapiens, UniProt Q6SZW1)
# T1 construct: Purified SARM1 (50-724) with a final concentration of 2 nM was pre-incubated with a test compound
# T1 sequence (Q6SZW1 50-724): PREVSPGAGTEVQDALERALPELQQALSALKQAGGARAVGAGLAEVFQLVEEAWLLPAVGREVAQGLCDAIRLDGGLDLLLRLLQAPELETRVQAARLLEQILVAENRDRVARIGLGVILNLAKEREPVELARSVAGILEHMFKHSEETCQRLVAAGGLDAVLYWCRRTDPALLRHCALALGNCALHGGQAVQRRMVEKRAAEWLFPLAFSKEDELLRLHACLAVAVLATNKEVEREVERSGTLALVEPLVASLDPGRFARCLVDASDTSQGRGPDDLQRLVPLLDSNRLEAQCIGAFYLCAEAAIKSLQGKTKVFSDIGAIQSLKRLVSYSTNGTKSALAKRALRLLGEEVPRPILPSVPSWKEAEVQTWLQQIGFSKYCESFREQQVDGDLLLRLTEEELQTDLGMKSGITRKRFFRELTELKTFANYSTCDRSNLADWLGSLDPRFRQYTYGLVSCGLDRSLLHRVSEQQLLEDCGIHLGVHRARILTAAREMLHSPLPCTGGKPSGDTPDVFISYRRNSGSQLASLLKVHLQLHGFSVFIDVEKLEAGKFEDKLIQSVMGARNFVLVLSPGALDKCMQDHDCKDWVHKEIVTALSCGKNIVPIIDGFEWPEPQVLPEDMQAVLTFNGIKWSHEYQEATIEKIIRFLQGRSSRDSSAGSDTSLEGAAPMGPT
# Assay: SARM1 (50-724) enzymatic assay (LC-MS/MS)
# Format: biochemical
# Conditions: Purified SARM1 (50-724) 2 nM, NMN as activator, NAD+ as substrate, 1 h at room temperature, read-out: IC50 (SARM1 inhibitory activity)
# In short: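 Reaction buffer was Dulbecco's PBS. Compound and 2 nM human SARM1 (50-724) were pre-incubated 15 min at room temperature, then […] NAD^+ and 200 µM NMN activator were added for 1 h at room temperature. Acetonitrile (70%) stop, LC-MS/MS read-out, IC50 values.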
row,SMILES,IC50
1,"FC(F)C12CC(n3cnnc3-c3nc4cc(C(F)(F)F)ccc4[nH]3)(C1)C2 [Compound 214, 2-(4-(3-(difluoromethyl)bicyclo[1.1.1]pentan-1-yl)-4H-1,2,4-triazol-3-yl)-5-(trifluoromethyl)-1H-benzo[d]imidazole]",> 1000 nM
2,"Cc1ccc2[nH]c(C3=C(C4CCCC4)C(=O)OC3)nc2c1 [Compound 8, 3-Cyclopentyl-4-(5-methyl-1H-benzo[d]imidazol-2-yl)furan-2(5H)-one]",> 1000 nM
3,"CC1(c2ccc3[nH]c(-c4nncn4-c4cccc(F)c4Cl)nc3c2)CS(=O)(=O)C1 [Compound 178, 3-(2-(4-(2-chloro-3-fluorophenyl)-4H-1,2,4-triazol-3-yl)-1H-benzo[d]imidazol-5-yl)-3-methylthietane 1,1-dioxide]",100 to 500 nM
4,"CS(=O)(=O)Cc1nnc(-c2nc3c(F)c(C(F)(F)F)ccc3[nH]2)n1-c1cccc(F)c1Cl (single isomer, unassigned) [Compound 196, 2-(4-(2-chloro-3-fluorophenyl)-5-((methylsulfonyl)methyl)-4H-1,2,4-triazol-3-yl)-4-fluoro-5-(trifluoromethyl)-1H-benzo[d]imidazole]",> 1000 nM
5,"CC(F)(F)c1ccncc1-n1cnnc1-c1nc2cc(C(F)(F)F)ccc2[nH]1 [Compound 260, 2-(4-(4-(1,1-Difluoroethyl)pyridin-3-yl)-4H-1,2,4-triazol-3-yl)-5-(trifluoromethyl)-1H-benzo[d]imidazole]",≤ 100 nM
6,"OCc1cccc(OC(F)(F)F)c1-n1cnnc1-c1nc2cc(C(F)(F)F)ccc2[nH]1 [Compound 261, (3-(trifluoromethoxy)-2-(3-(5-(trifluoromethyl)-1H-benzo[d]imidazol-2-yl)-4H-1,2,4-triazol-4-yl)phenyl)methanol]",≤ 100 nM
7,"Cc1ccc2[nH]c(-n3c(-c4cccc(Cl)c4Cl)noc3=O)nc2c1 [Compound 29, 3-(2,3-dichlorophenyl)-4-(5-methyl-1H-benzo[d]imidazol-2-yl)-1,2,4-oxadiazol-5 (4H)-one]",> 1000 nM
8,"O=C1OCC(c2nc3cc(C(F)(F)F)ccc3[nH]2)=C1c1cccc(Cl)c1Cl [Compound 25, 3-(2,3-Dichlorophenyl)-4-(5-(trifluoromethyl)-1H-benzo[d]imidazol-2-yl)furan-2(5H)-one]",> 1000 nM
9,CS(=O)(=O)CCOc1ccc(OC(F)(F)F)c(-n2cnnc2-c2nc3cc(C(F)(F)F)ccc3[nH]2)n1 [Compound 267],≤ 100 nM
10,"COC(C)(c1ccc2[nH]c(-c3nncn3-c3ccc(F)c(F)c3Cl)nc2c1)C1COC1 (stereo not drawn) [Compound 150, 2-(4-(2-chloro-3,4-difluorophenyl)-4H-1,2,4-triazol-3-yl)-5-(1-methoxy-1-(oxetan-3-yl)ethyl)-1H-benzo[d]imidazole]",100 to 500 nM
11,"O=c1[nH]nc(-c2nc3cc(C(F)(F)F)ccc3[nH]2)n1-c1cccc(Cl)c1Cl [Compound 36, 4-(2,3-dichlorophenyl)-5-(5-(trifluoromethyl)-1H-benzo[d]imidazol-2-yl)-2,4-dihydro-3H-1,2,4-triazol-3-one]",100 to 500 nM
12,"FC(F)(F)c1ccc2[nH]c(-c3nncn3-c3c(Cl)cccc3-c3ccn[nH]3)nc2c1 [Compound 168, 2-(4-(2-chloro-6-(1H-pyrazol-5-yl)phenyl)-4H-1,2,4-triazol-3-yl)-5-(trifluoromethyl)-1H-benzo[d]imidazole]",100 to 500 nM
13,"O=c1cc(-n2cnnc2-c2nc3cc(C(F)(F)F)ccc3[nH]2)c(Cl)c[nH]1 [Compound 163, 5-Chloro-4-(3-(5-(trifluoromethyl)-1H-benzo[d]imidazol-2-yl)-4H-1,2,4-triazol-4-yl)pyridin-2(1H)-one]",≤ 100 nM
14,Cc1ccc2[nH]c(-c3n[nH]c(=O)n3C3CCCC3)nc2c1 [Compound 14],> 1000 nM
15,"C=C(F)Cc1cc(F)c2[nH]c(-c3nncn3-c3cnccc3C(F)(F)F)nc2c1 [Compound 316, 7-fluoro-5-(2-fluoroallyl)-2-(4-(4-(trifluoromethyl)pyridin-3-yl)-4H-1,2,4-triazol-3-yl)-1H-benzo[d]imidazole]",≤ 100 nM
16,"FC(F)(F)Oc1cnc(C2CCO2)cc1-n1cnnc1-c1nc2cc(C(F)(F)F)ccc2[nH]1 (stereo not drawn) [Compound 294, 2-(4-(2-(oxetan-2-yl)-5-(trifluoromethoxy)pyridin-4-yl)-4H-1,2,4-triazol-3-yl)-5-(trifluoromethyl)-1H-benzo[d]imidazole]",≤ 100 nM
17,"CS(=O)(=O)Cc1nnc(-c2nc3cc(C(F)(F)F)cc(F)c3[nH]2)n1-c1cccc(F)c1Cl (single isomer, unassigned) [Compound 184, 2-(4-(2-Chloro-3-fluorophenyl)-5-((methylsulfonyl)methyl)-4H-1,2,4-triazol-3-yl)-7-fluoro-5-(trifluoromethyl)-1H-benzo[d]imidazole]",≤ 100 nM
18,"FC(F)(F)Oc1ccc(OC2COC2)cc1-n1cnnc1-c1nc2cc(C(F)(F)F)ccc2[nH]1 [Compound 271, 2-(4-(5-(oxetan-3-yloxy)-2-(trifluoromethoxy)phenyl)-4H-1,2,4-triazol-3-yl)-5-(trifluoromethyl)-1H-benzo[d]imidazole]",≤ 100 nM
19,"Cc1ccc2[nH]c(-c3cncn3C3CCCC3)nc2c1 [Compound 3, 2-(1-cyclopentyl-1H-imidazol-5-yl)-6-methyl-1H-benzo[d]Imi-dazole]",> 1000 nM
20,"N#CC1(c2ccc3[nH]c(-c4nncn4-c4cccc(F)c4Cl)nc3c2)COC1 [Compound 180, 3-(2-(4-(2-chloro-3-fluorophenyl)-4H-1,2,4-triazol-3-yl)-1H-benzo[d]imidazol-5-yl)oxetane-3-carbonitrile]",≤ 100 nM

# The next lines start with the values.
row,IC50,SMILES
1,≤ 100 nM,OCc1nnc(-c2nc3cc(C(F)(F)F)ccc3[nH]2)n1-c1cccc(Cl)c1Cl [Example 90]
2,≤ 100 nM,"Fc1cc(C2(F)CC2)cc2nc(-c3nnccc3-c3nnccc3C(F)(F)F)[nH]c12 [Compound 466, 7-fluoro-5-(1-fluorocyclopropyl)-2-(4-(trifluoromethyl)-[3,4′-bipyridazin]-3′-yl)-1H-benzo[d]imidazole]"
3,≤ 100 nM,"Cc1ccn(-c2cc(F)c3[nH]c(-c4nncn4-c4cnccc4C(F)(F)F)nc3c2)n1 [Compound 401, 7-fluoro-5-(3-methyl-1H-pyrazol-1-yl)-2-(4-(4-(trifluoromethyl)pyridin-3-yl)-4H-1,2,4-triazol-3-yl)-1H-benzo[d]imidazole]"
4,100 to 500 nM,Cn1cc(-c2ccccc2Cl)c(-c2nc3cc(C(F)(F)F)ccc3[nH]2)cc1=O [Example 75]
5,≤ 100 nM,"NC(=O)C1CC1c1ccc2[nH]c(-c3nncn3-c3cnccc3C(F)(F)F)nc2c1F (stereo not drawn) [Compound 321, 2-(4-fluoro-2-(4-(4-(trifluoromethyl)pyridin-3-yl)-4H-1,2,4-triazol-3-yl)-1H-benzo[d]imidazol-5-yl)cyclopropane-1-carboxamide]"
6,> 1000 nM,"O=S1(c2cc(F)c3[nH]c(-c4nncn4-c4cnccc4C(F)(F)F)nc3c2)=NCCC1 (stereo not drawn) [Compound 424, 1-[7-fluoro-2-[4-[4-(trifluoromethyl)-3-pyridyl]-1,2,4-triazol-3-yl]-1H-benzimidazol-5-yl]-4,5-dihydro-3H-isothiazole 1-oxide]"
7,500 to 1000 nM,"FC(F)(F)c1ccc2[nH]c(C3COCCN3c3cccc(Cl)c3Cl)nc2c1 (stereo not drawn) [Compound 363, 4-(2,3-dichlorophenyl)-3-[5-(trifluoromethyl)-1H-benzimidazol-2-yl]morpholine]"
8,≤ 100 nM,Cc1ccnc(-n2cnnc2-c2nc3cc(C(F)(F)F)ccc3[nH]2)c1Cl [Example 66]
9,≤ 100 nM,OC1(c2ccc3[nH]c(-c4nncn4-c4ccc(F)c(F)c4Cl)nc3c2)CC1 [Example 134]
10,100 to 500 nM,"Cc1cc(-c2cnccc2C(F)(F)F)c(-c2nc3cc(C(F)(F)F)ccc3[nH]2)nn1 [Compound 377, 2-(6-Methyl-4-(4-(trifluoromethyl)pyridin-3-yl)pyridazin-3-yl)-5-(trifluoromethyl)-1H-benzo[d]imidazole]"
11,> 1000 nM,Cn1cc(-c2cccc(Cl)c2)c(-c2nc3cc(C(F)(F)F)ccc3[nH]2)cc1=O [Example 76]
12,≤ 100 nM,"CC1CC1c1cc(F)c2[nH]c(-c3nncn3-c3cnccc3C(F)(F)F)nc2c1 (stereo not drawn) [Compound 330, 7-fluoro-5-(2-methylcyclopropyl)-2-(4-(4-(trifluoromethyl)pyridin-3-yl)-4H-1,2,4-triazol-3-yl)-1H-benzo[d]imidazole]"
13,≤ 100 nM,COC(=O)C(C)(C)c1ccc2[nH]c(-c3nncn3-c3cccc(Cl)c3Cl)nc2c1 [Example 102]
14,≤ 100 nM,"O=c1cc(-c2nc3cc(C(F)(F)F)ccc3[nH]2)c(-c2cccc(Cl)c2Cl)c[nH]1 [Example 40, 5-(2,3-dichlorophenyl)-4-[5-(trifluoromethyl)-1H-benzimidazol-2-yl]-1H-pyridin-2-one]"
15,> 1000 nM,CC(CN(C)C)c1ccc2[nH]c(-c3nncn3-c3cnccc3C(F)(F)F)nc2c1 (stereo not drawn) [Compound 365]
16,> 1000 nM,Cc1ccc2[nH]c(-c3ncccc3-c3cccc(Cl)c3Cl)nc2c1 [Example 21]
